Assays:
[1] = Cytotoxicity against human HG23 cells assessed as reduction cell viability after 48 hrs by CytoTox 96 nonradioactive assay; format: cell-based
[2] = test system: Norovirus; assay: Antiviral activity against Norovirus replicon infected in human HG23 cells assessed as reduction in viral RNA level after 48 hrs by qRT-PCR analysis; format: functional, cell-based; details: HG23, 48 h
[3] = Inhibition of Norovirus 3CL protease using Edans-DFHLQ/GPDabcyl preincubated for 30 mins followed by substrate addition and measured after 1 hr by FRET assay

EC50 [2] [nM] | IC50 [3] [nM] | SMILES | CC50 at 48 h [1] [nM]
3700 | 2900 | CC(C)(OC(=O)N[C@@H](CC1CCCCC1)C(=O)N[C@H](C=O)C[C@@H]1CCNC1=O)c1cccc(Cl)c1 | > 100000
450 | 130 | CC(=O)OC([C@H](C[C@@H]1CCNC1=O)NC(=O)[C@H](CC(C)C)NC(=O)OCC(C)(C)c1cccc(Cl)c1)S(=O)(=O)O (some centres not stated) | > 100000
60 |  | O=C(N[C@@H](CC1CCCCC1)C(=O)N[C@@H](C[C@@H]1CCNC1=O)C(O)S(=O)(=O)O)OCCCc1cccc(Cl)c1 (some centres not stated) | 
700 | 1000 | CC(C)C[C@H](NC(=O)OC(C)(C)Cc1cccc(Cl)c1)C(=O)N[C@@H](C[C@@H]1CCNC1=O)C(O)S(=O)(=O)O (some centres not stated) | > 100000
180 | 270 | O=C(N[C@@H](CC1CCCCC1)C(=O)N[C@@H](C[C@@H]1CCNC1=O)C(O)S(=O)(=O)O)OC1(c2cccc(Cl)c2)CC1 (some centres not stated) | 42300
70 | 140 | CC(C)(COC(=O)N[C@@H](CC1CCCCC1)C(=O)N[C@@H](C[C@@H]1CCNC1=O)C(O)S(=O)(=O)O)Cc1cccc(Cl)c1 (some centres not stated) | 16200
1800 | 3300 | CC(C)C[C@H](NC(=O)OC(C)(C)c1cccc(Cl)c1)C(=O)N[C@@H](C[C@@H]1CCNC1=O)C(O)S(=O)(=O)O (some centres not stated) | > 100000
190 | 300 | CC(C)C[C@H](NC(=O)OCC(C)(C)c1cccc(Cl)c1)C(=O)N[C@@H](C[C@@H]1CCNC1=O)C(O)S(=O)(=O)O (some centres not stated) | > 100000
100 | 340 | CCC(=O)OC([C@H](C[C@@H]1CCNC1=O)NC(=O)[C@H](CC1CCCCC1)NC(=O)OCC(C)(C)Cc1cccc(Cl)c1)S(=O)(=O)O (some centres not stated) | 18400
5400 | 7700 | CC(C)(Cc1cccc(Cl)c1)OC(=O)N[C@@H](CC1CCCCC1)C(=O)N[C@H](C=O)C[C@@H]1CCNC1=O | 15600
600 | 450 | CC(C)(COC(=O)N[C@@H](CC1CCCCC1)C(=O)N[C@H](C=O)C[C@@H]1CCNC1=O)c1ccccc1 | 80100
80 |  | CCCCCC(=O)OC([C@H](C[C@@H]1CCNC1=O)NC(=O)[C@H](CC1CCCCC1)NC(=O)OCC(C)(C)Cc1cccc(Cl)c1)S(=O)(=O)O (some centres not stated) | 20700
90 | 190 | CC(C)C[C@H](NC(=O)OCCCc1cccc(Cl)c1)C(=O)N[C@@H](C[C@@H]1CCNC1=O)C(O)S(=O)(=O)O (some centres not stated) | > 100000
70 | 230 | CC(C)(COC(=O)N[C@@H](CC1CCCCC1)C(=O)N[C@H](C=O)C[C@@H]1CCNC1=O)c1cccc(Cl)c1 | 13300
770 | 750 | CC(C)C[C@H](NC(=O)OCCCc1ccccc1)C(=O)N[C@H](C=O)C[C@@H]1CCNC1=O | > 100000
2900 | 2700 | CC(C)(OC(=O)N[C@@H](CC1CCCCC1)C(=O)N[C@@H](C[C@@H]1CCNC1=O)C(O)S(=O)(=O)O)c1cccc(Cl)c1 (some centres not stated) | > 100000
80 | 200 | CC(C)(COC(=O)N[C@@H](CC1CCCCC1)C(=O)N[C@@H](C[C@@H]1CCNC1=O)C(O)S(=O)(=O)O)c1cccc(Cl)c1 (some centres not stated) | 14300
500 | 320 | CC(C)(COC(=O)N[C@@H](CC1CCCCC1)C(=O)N[C@@H](C[C@@H]1CCNC1=O)C(O)S(=O)(=O)O)c1ccccc1 (some centres not stated) | 83900
220 | 70 | CCC(=O)OC([C@H](C[C@@H]1CCNC1=O)NC(=O)[C@H](CC1CCCCC1)NC(=O)OCC(C)(C)c1cccc(Cl)c1)S(=O)(=O)O (some centres not stated) | 70500
150 | 90 | CC(=O)OC([C@H](C[C@@H]1CCNC1=O)NC(=O)[C@H](CC1CCCCC1)NC(=O)OCC(C)(C)c1cccc(Cl)c1)S(=O)(=O)O (some centres not stated) | 67000
850 | 600 | CC(C)C[C@H](NC(=O)OCCCc1ccccc1)C(=O)N[C@@H](C[C@@H]1CCNC1=O)C(O)S(=O)(=O)O (some centres not stated) | > 100000
60 | 110 | CC(C)(COC(=O)N[C@@H](CC1CCCCC1)C(=O)N[C@H](C=O)C[C@@H]1CCNC1=O)Cc1cccc(Cl)c1 | 14100

Further lines, the molecule ahead of its results:

SMILES | EC50 [2] [nM] | IC50 [3] [nM] | CC50 at 48 h [1] [nM]
CC(C)C[C@H](NC(=O)OC(C)(C)Cc1cccc(Cl)c1)C(=O)N[C@H](C=O)C[C@@H]1CCNC1=O | 900 | 1200 | > 100000
O=C[C@H](C[C@@H]1CCNC1=O)NC(=O)[C@H](CC1CCCCC1)NC(=O)OCCCc1cccc(Cl)c1 | 80 |  | 30300
CC(C)C[C@H](NC(=O)OC/C=C/c1cccc(Cl)c1)C(=O)N[C@@H](C[C@@H]1CCNC1=O)C(O)S(=O)(=O)O (some centres not stated) | 80 | 110 | > 100000
O=C[C@H](C[C@@H]1CCNC1=O)NC(=O)[C@H](CC1CCCCC1)NC(=O)OC1(c2cccc(Cl)c2)CC1 | 250 | 280 | 36500
CC(C)C[C@H](NC(=O)OC1(c2cccc(Cl)c2)CC1)C(=O)N[C@@H](C[C@@H]1CCNC1=O)C(O)S(=O)(=O)O (some centres not stated) | 550 | 250 | > 100000
CC(C)(Cc1cccc(Cl)c1)OC(=O)N[C@@H](CC1CCCCC1)C(=O)N[C@@H](C[C@@H]1CCNC1=O)C(O)S(=O)(=O)O (some centres not stated) | 2900 | 6800 | 20400
CC(C)C[C@H](NC(=O)OCC(C)(C)c1ccccc1)C(=O)N[C@@H](C[C@@H]1CCNC1=O)C(O)S(=O)(=O)O (some centres not stated) | 450 | 400 | > 100000
CC(C)C[C@H](NC(=O)OCC(C)(C)c1ccccc1)C(=O)N[C@H](C=O)C[C@@H]1CCNC1=O | 650 | 450 | > 100000
O=C(N[C@@H](CC1CCCCC1)C(=O)N[C@@H](C[C@@H]1CCNC1=O)C(O)S(=O)(=O)O)OC/C=C/c1cccc(Cl)c1 (some centres not stated) | 70 | 160 | 28300
CC(C)C[C@H](NC(=O)OC/C=C/c1cccc(Cl)c1)C(=O)N[C@H](C=O)C[C@@H]1CCNC1=O | 80 | 150 | > 100000
CC(C)C[C@H](NC(=O)OCC(C)(C)c1cccc(Cl)c1)C(=O)N[C@H](C=O)C[C@@H]1CCNC1=O | 170 | 270 | > 100000
O=C[C@H](C[C@@H]1CCNC1=O)NC(=O)[C@H](CC1CCCCC1)NC(=O)OC/C=C/c1cccc(Cl)c1 | 60 | 140 | 24100
CC(C)C[C@H](NC(=O)OCCCc1cccc(Cl)c1)C(=O)N[C@H](C=O)C[C@@H]1CCNC1=O | 160 | 260 | > 100000
CC(C)C[C@H](NC(=O)OC1(c2cccc(Cl)c2)CC1)C(=O)N[C@H](C=O)C[C@@H]1CCNC1=O | 650 | 280 | > 100000
CC(C)C[C@H](NC(=O)OC(C)(C)c1cccc(Cl)c1)C(=O)N[C@H](C=O)C[C@@H]1CCNC1=O | 3500 | 3800 | > 100000
